Measured values taken from publication PMC1521118 (Environmental Health Perspectives, 1993).
Read-outs that look alike come from different tables or passages of the source.

Legend:
cytochrome P450 = conditions: phenobarbital-inducible cytochrome P450, presumably CYP2B; cited from earlier work
[1] = test system: Salmonella typhimurium TA97
[2] = test system: Salmonella typhimurium TA98
[3] = test system: Bacillus subtilis-transforming DNA; conditions: reactive species toward Bacillus subtilis-transforming DNA; cited from earlier work
[4] = Sprague-Dawley rats; cited from earlier work
[5] = test system: sarcoma 180 ascites cells; conditions: mice bearing sarcoma 180 ascites cells; cited from earlier work
[6] = 10 female Wistar rats; at 15 months; cited from earlier work
mouse sarcoma 180 cells = mouse sarcoma 180 cells in vitro; cited from earlier work
[7] = test system: Salmonella typhimurium TA98; conditions: ref 35 (McCartney et al.); cited from earlier work
sulfotransferase = conditions: cited from earlier work
[8] = rat, in vivo; cited from earlier work
[9] = with (+) Aroclor 1254 rat hepatic S9 10% v/v, 100 ng/plate
[10] = absence of S9, 100 ng/plate or less

## Nc1ncnc2nc[nH]c12 [Adenine]
Cytochrome P450
  oxidation to adenine-1-N-oxide: failed to oxidize
[1]; [9]
  histidine revertants/plate, TA97: 104 + 12 histidine revertants/plate
[2]; with (+) S9, 100 ng/plate
  histidine revertants/plate, TA98: 76 + 11 histidine revertants/plate

## CC(=O)On1cnc2ncnc-2c1N [1-acetoxyadenine]
[3]
  mutagenicity: weak mutagen

## Nc1ccc2cc3ccccc3cc2c1 [2-Aminoanthracene, reference compound]
[1]; Salmonella typhimurium
  histidine revertants/plate, TA97: 600 histidine revertants/plate
[2]; Salmonella typhimurium
  histidine revertants/plate, TA98: 865 histidine revertants/plate

## Nc1ncnc2c1ncn2Cc1ccccc1 [9-Benzyladenine]
[2]; with (+) S9, 100 ng/plate
  histidine revertants/plate, TA98: 131 + 18 histidine revertants/plate

## Cn1cnc2c(N)[n+]([O-])cnc21 [9-Methyladenine-1-N-oxide]
[2]; with (+) S9, 100 ng/plate
  histidine revertants/plate, TA98: 118 + 9 histidine revertants/plate

## Cn1cnc2c(N)ncnc21 [9-Methyladenine]
[1]; [9]
  histidine revertants/plate, TA97: 88 + 4 histidine revertants/plate
[2]; without (-) S9, 100 ng/plate
  histidine revertants/plate, TA98: 21 + 6 histidine revertants/plate

## ONc1ncnc2c1ncn2Cc1ccccc1 [9-Benzyl-6-hydroxylaminopurine]
[1]; [10]
  mutagenic activity toward TA97 (in words): highly active
[2]; [10]
  mutagenic activity toward TA98 (in words): inactive

## ONc1ncnc2nc[nH]c12 [6-Hydroxylaminopurine]
[4]
  oncogenicity: completely inactive
[5]
  survival time: prolonged the survival time
[1]; 1 ng/plate, without metabolic activation
  reversion rate relative to spontaneous reversion rate, TA97: twice the spontaneous reversion rate
[1]; 100 ng/plate
  toxicity toward TA97: toxic
[1]; with (+) S9, 1 ng/plate
  histidine revertants/plate, TA97: 113 + 4 histidine revertants/plate
[6]
  tumors produced: only one tumor
Mouse sarcoma 180 cells
  effect on cells: induced mitotic inhibition and nuclear degeneration
[7]
  mutagenicity toward TA98: inactive
[2]; 1 ng/plate
  toxicity toward TA98: still toxic
[2]; 100 ng/plate
  toxicity toward TA98: toxic
[2]; concentration not given
  toxicity toward TA98: extremely toxic
[2]; with (+) S9, 1 ng/plate
  histidine revertants/plate, TA98: toxic
[2]; without (-) S9, 1 ng/plate
  histidine revertants/plate, TA98: toxic

## Nc1c2[nH]cnc2nc[n+]1[O-] [Adenine-1-N-oxide]
sulfotransferase
  activity as a sulfate acceptor: inactive
[8]
  tumor production: failed to produce tumors
[2]; without (-) S9, 100 ng/plate
  histidine revertants/plate, TA98: 19 + 6 histidine revertants/plate
